≈ marks a conversion by molar mass, not a printed value.
Tested on: not listed separately
Experiment: Cytotoxicity against human HCT116 cells assessed as reduction in cell viability at 25 ug/mL after 72 hrs by MTT assay
Assay type: functional, HCT-116
Details: not given

SMILES	Activity [%]
COc1ccc(C)cc1C1=C(Br)C(=O)N(CC(C)C)/C1=C/c1ccccc1Cl	19.23
COc1ccc(Br)cc1C1=C(Br)C(=O)N(CC(C)C)/C1=C/c1ccc(Br)cc1	97.98
COc1cccc(/C=C2\C(c3cc(Cl)ccc3OC)=C(Br)C(=O)N2CC(C)C)c1	75.51
COc1ccc(Cl)cc1-c1c(Cc2ccc(C(F)(F)F)cc2)n[nH]c(=O)c1Br	97.73
O=C1O/C(=C\c2ccc(Cl)cc2)C(Cl)=C1Cl	95.81
COc1ccc(C)cc1C1=C(Br)C(=O)N(CC(C)C)/C1=C\c1ccccc1Cl	77.02
COc1ccc(C)cc1C1=C(Br)C(=O)O/C1=C\c1ccccc1Cl	35.84
COc1ccc(Br)cc1-c1c(Cc2ccccc2Cl)n[nH]c(=O)c1Br	38.1
COc1ccccc1C1=C(Br)C(=O)O/C1=C\c1ccc(C(F)(F)F)cc1	84.46
O=C1O/C(=C\c2ccc(F)cc2)C(Cl)=C1Cl	97.68
CC(C)CN1C(=O)C(Cl)=C(Cl)/C1=C/c1ccc(Br)cc1	97.93
COc1ccccc1C1=C(Br)C(=O)N(CC(C)C)/C1=C\c1ccc(C(F)(F)F)cc1	79.09
COc1ccc(Br)cc1C1=C(Br)C(=O)N(CC(C)C)/C1=C\c1cccc(Cl)c1	86.98
COc1cccc(CC2(O)C(c3cc(Cl)ccc3OC)=C(Br)C(=O)N2CC(C)C)c1 (stereo not given)	67.25
COc1ccccc1C1=C(Br)C(=O)N(CC(C)C)/C1=C/c1ccc(C(F)(F)F)cc1	88.8
O=C1O/C(=C\c2ccc(C(F)(F)F)cc2)C(Cl)=C1Cl	76.92
CC(C)CN1C(=O)C(Cl)=C(Cl)C1(O)Cc1ccc(Br)cc1 (stereo not given)	49.89
COc1cccc(Cc2n[nH]c(=O)c(Br)c2-c2cc(Br)ccc2OC)c1	10.78
COc1ccccc1C1=C(Br)C(=O)N(CC(C)C)C1(O)Cc1ccc(C(F)(F)F)cc1 (stereo not given)	78.84
COc1ccc(Br)cc1C1=C(Br)C(=O)N(CC(C)C)C1(O)Cc1cccc(Cl)c1 (stereo not given)	92.75
COc1ccc(Br)cc1C1=C(Br)C(=O)O/C1=C\c1ccccc1Cl	74.4

Tested on: not listed separately
Experiment: Cytotoxicity against human SF295 cells assessed as reduction in cell viability at 25 ug/mL after 72 hrs by MTT assay
Assay type: functional, SF-295
Details: not given

SMILES	Activity [%]
COc1ccc(C)cc1C1=C(Br)C(=O)N(CC(C)C)/C1=C/c1ccccc1Cl	6.91
COc1ccc(Br)cc1C1=C(Br)C(=O)N(CC(C)C)/C1=C/c1ccc(Br)cc1	53.77
COc1cccc(/C=C2\C(c3cc(Cl)ccc3OC)=C(Br)C(=O)N2CC(C)C)c1	79.36
COc1ccc(Cl)cc1-c1c(Cc2ccc(C(F)(F)F)cc2)n[nH]c(=O)c1Br	73.87
O=C1O/C(=C\c2ccc(Cl)cc2)C(Cl)=C1Cl	48.84
COc1ccc(C)cc1C1=C(Br)C(=O)N(CC(C)C)/C1=C\c1ccccc1Cl	61.86
COc1ccc(C)cc1C1=C(Br)C(=O)O/C1=C\c1ccccc1Cl	2.02
COc1ccc(Br)cc1-c1c(Cc2ccccc2Cl)n[nH]c(=O)c1Br	47.29
COc1ccccc1C1=C(Br)C(=O)O/C1=C\c1ccc(C(F)(F)F)cc1	71.31
O=C1O/C(=C\c2ccc(F)cc2)C(Cl)=C1Cl	68.44
CC(C)CN1C(=O)C(Cl)=C(Cl)/C1=C/c1ccc(Br)cc1	48.29
COc1ccccc1C1=C(Br)C(=O)N(CC(C)C)/C1=C\c1ccc(C(F)(F)F)cc1	51.01
COc1ccc(Br)cc1C1=C(Br)C(=O)N(CC(C)C)/C1=C\c1cccc(Cl)c1	72.36
COc1cccc(CC2(O)C(c3cc(Cl)ccc3OC)=C(Br)C(=O)N2CC(C)C)c1 (stereo not given)	69.2
COc1ccccc1C1=C(Br)C(=O)N(CC(C)C)/C1=C/c1ccc(C(F)(F)F)cc1	84.72
O=C1O/C(=C\c2ccc(C(F)(F)F)cc2)C(Cl)=C1Cl	92.21
CC(C)CN1C(=O)C(Cl)=C(Cl)C1(O)Cc1ccc(Br)cc1 (stereo not given)	42.06
COc1cccc(Cc2n[nH]c(=O)c(Br)c2-c2cc(Br)ccc2OC)c1	30.95
COc1ccccc1C1=C(Br)C(=O)N(CC(C)C)C1(O)Cc1ccc(C(F)(F)F)cc1 (stereo not given)	67.94
COc1ccc(Br)cc1C1=C(Br)C(=O)N(CC(C)C)C1(O)Cc1cccc(Cl)c1 (stereo not given)	78.09
COc1ccc(Br)cc1C1=C(Br)C(=O)O/C1=C\c1ccccc1Cl	49.4

Tested on: not listed separately
Experiment: Cytotoxicity against human OVCAR8 cells assessed as reduction in cell viability at 25 ug/mL after 72 hrs by MTT assay
Assay type: functional, OVCAR-8
Details: not given

SMILES	Activity [%]
COc1ccc(C)cc1C1=C(Br)C(=O)N(CC(C)C)/C1=C/c1ccccc1Cl	34.8
COc1ccc(Br)cc1C1=C(Br)C(=O)N(CC(C)C)/C1=C/c1ccc(Br)cc1	90.66
COc1cccc(/C=C2\C(c3cc(Cl)ccc3OC)=C(Br)C(=O)N2CC(C)C)c1	55.28
COc1ccc(Cl)cc1-c1c(Cc2ccc(C(F)(F)F)cc2)n[nH]c(=O)c1Br	53.87
O=C1O/C(=C\c2ccc(Cl)cc2)C(Cl)=C1Cl	0
COc1ccc(C)cc1C1=C(Br)C(=O)N(CC(C)C)/C1=C\c1ccccc1Cl	20.46
COc1ccc(C)cc1C1=C(Br)C(=O)O/C1=C\c1ccccc1Cl	26.18
COc1ccc(Br)cc1-c1c(Cc2ccccc2Cl)n[nH]c(=O)c1Br	27.93
COc1ccccc1C1=C(Br)C(=O)O/C1=C\c1ccc(C(F)(F)F)cc1	98.85
O=C1O/C(=C\c2ccc(F)cc2)C(Cl)=C1Cl	98.99
CC(C)CN1C(=O)C(Cl)=C(Cl)/C1=C/c1ccc(Br)cc1	54.45
COc1ccccc1C1=C(Br)C(=O)N(CC(C)C)/C1=C\c1ccc(C(F)(F)F)cc1	47.91
COc1ccc(Br)cc1C1=C(Br)C(=O)N(CC(C)C)/C1=C\c1cccc(Cl)c1	52.15
COc1cccc(CC2(O)C(c3cc(Cl)ccc3OC)=C(Br)C(=O)N2CC(C)C)c1 (stereo not given)	27
COc1ccccc1C1=C(Br)C(=O)N(CC(C)C)/C1=C/c1ccc(C(F)(F)F)cc1	75.07
O=C1O/C(=C\c2ccc(C(F)(F)F)cc2)C(Cl)=C1Cl	98.2
CC(C)CN1C(=O)C(Cl)=C(Cl)C1(O)Cc1ccc(Br)cc1 (stereo not given)	13.42
COc1cccc(Cc2n[nH]c(=O)c(Br)c2-c2cc(Br)ccc2OC)c1	10.69
COc1ccccc1C1=C(Br)C(=O)N(CC(C)C)C1(O)Cc1ccc(C(F)(F)F)cc1 (stereo not given)	21.61
COc1ccc(Br)cc1C1=C(Br)C(=O)N(CC(C)C)C1(O)Cc1cccc(Cl)c1 (stereo not given)	98.49
COc1ccc(Br)cc1C1=C(Br)C(=O)O/C1=C\c1ccccc1Cl	57.61

Tested on: HT-29
Experiment: Cytotoxicity against human HT-29 cells
Assay type: functional
Details: read-out: ED50 (the source's name)

SMILES	EC50 [µg/mL]
O=C1O/C(=C\c2ccc(O)c(Br)c2)C(c2ccc(O)cc2)=C1Cl	1.2 (≈ 3.05 µM)
O=C1O/C(=C\c2ccc(O)c(Br)c2)C(c2ccc(O)c(Br)c2)=C1Cl	1.2 (≈ 2.54 µM)
